Reference: patent publication US10197574B2, “Analyte detection using near-infrared fluorophores” (Portland State University, priority 2011, dated 2019)
Marks after values point to notes of the source that are not given here. Each block holds one compound with its values, some of them ahead of it.

Columns and labels:
Emission in blood = experiment: Emission in blood; design: species or system porcine
Experimental: Compound 15d (Table 1) was diluted to 40 μM in 50% DMSO:50% 25 mM pH 9 phosphate buffer. […] Emission remained stable for at least 1 hour. The absorption profile matches the output of a laser pointer (635-670 nm; max output <5 mW). NIR emission (80 μM) was clearly visible with a digital camera (Kodak EasyShare Z740) in a NIR photograph taken with 8 sec. exposure collected through a Hoya R72 camera filter (% T<1% at <690 nm, % T>90% at >750 nm).
Its absorbance and fluorescence spectra faded over time, but remained visible after about an hour (although with only 10-20% of its original emission intensity). Molecular modeling has shown favorable structural interactions of compounds 5f and 24 with glutathione (see, e.g., FIG. 20—compound 24).
Spectral behavior of compound 15g (type [c] annulated seminaphthorhodamine methyl ester (free amine) with the 3-1 transposition) was investigated to determine its potential for sensing use in whole blood. Solutions of compound 15g in 10% or 90% by volume whole blood (porcine blood in Na-EDTA, Lampire Biological Laboratories) were investigated in a 3×3 mm cell. […] Throughout much of the spectrum, the dye produces a greater absorbance than the blood alone. The change in absorbance between the two spectra provides the effective absorbance of the dye. […]

[1] = UV-visible absorbance spectroscopy of fluorophores (15 μM, 90% aqueous, 10% DMSO); assay type: physicochemical; conditions: for red-shift of absorbance maximum: 15a compared to 20a, anion 15h compared to anion 20c
Experimental: Compounds 20a and 15a were characterized by UV-visible spectroscopy (FIG. 25). Absorbance was measured using 15 μM solutions of each compound in a solution that was 90% aqueous, 10% DMSO. The peaks at 545 nm (light dashed line) and 595 nm (light solid line) represent the respective anions, compounds 20c and 15h, in NaOH (pH 12). The peaks at 515 nm (heavy dashed line) and 525 nm (heavy solid line) represent the predominantly neutral forms of compounds 20a and 15a at pH 6, respectively.
Although the red shift of compound 15a in methanol was modest, its corresponding anion (compound 15h) in DMSO:aqueous base 1:9 was shifted more substantially by 50 nm to […] as compared to anion 20c under the same conditions. Its fluorescence emission was shifted by an even larger […], emitting at 760 nm. The comparatively large shift of the anion 15h supports a polar effect as playing a key role in modulating the HOMO-LUMO gap in the compound. […]
Known seminaphthorhodafluors display long wavelength absorption at high pH; however, the free amino compound in this series respond to low pH with increased long wavelength absorption.

[2] = Fluorescence emission spectra and Stokes shift of fluorophores (15 μM, 90% aqueous, 10% DMSO); assay type: physicochemical
Experimental: Compounds 21 and 7 also were characterized by their fluorescence emission spectra. Fluorescence was measured using 15 μM solutions of each compound in a solution that was 90% aqueous, 10% DMSO. For compound 21, the longest wavelength emission observed from the dianion occurred near 680 nm at pH 9. For compound 7 (transposed), the longest wavelength emission observed from the monoanion occurred near 800 nm at pH 9.
The Stokes shift of each compound was measured and determined to be about 80 nm for the compound 21 dianion, and about 150 nm for the compound 7 (transposed) monoanion.
Compounds 22 and 8 also were characterized by their fluorescence emission spectra. Fluorescence was measured using 15 μM solutions of each compound in a solution that was 90% aqueous, 10% DMSO. For compound 22, the longest wavelength emission observed from the anion occurred near 690 nm at pH 9. For compound 8 (transposed), emission was not observed. Given the greater than 800 nm absorbance peak and the typically large Stokes shifts observed in this class of compounds, it is likely that the emission was beyond the working range of the instrument (>850 nm).
The Stokes shift of each compound was measured and determined to be about 80 nm for the compound 22 anion, and unmeasurable for the compound 8 (transposed) neutral form.
Compounds 20a and 15a also were characterized by their fluorescence emission spectra. Fluorescence was measured using 15 μM solutions of each compound in a solution that was 90% aqueous, 10% DMSO. For compound 20a, the longest wavelength emission observed from its corresponding anion, compound 20c, occurred near 640 nm in NaOH (pH 12). For compound 15a (with 3-1 transposition), the longest wavelength emission observed from the corresponding anion, compound 15h, occurred near 760 nm in NaOH.
The Stokes shift of each compound was measured and determined to be about 95 nm for the compound 20c anion, and about 165 nm for the compound 15h (transposed) anion. Thus, the 3-1 transposition enhanced the Stokes shift by about 70 nm.
(§1) Compound 15b also was characterized by its fluorescence emission spectrum and compared to C.SNARF-5. Fluorescence was measured using a 15 μM solution of compound 15b in a solution that was 90% aqueous, 10% DMSO. For C.SNARF-5, the longest wavelength emission observed from the anion occurred near 632 nm (Whitaker et al., Anal. Biochem. 1991, 194, 330-344). For compound 15b (transposed), the longest wavelength emission observed from the phenoxide occurred near 770 nm.
The Stokes shift of each compound was measured and determined to be about 82 nm for the C.SNARF-5 anion, and about 155 nm for the compound 15b (transposed) phenoxide. Thus, the 3-1 transposition enhanced the Stokes shift by about 73 nm.
as §1, with “15d” for “15b”, “SNARF-1.” for “C.SNARF-5.”, “SNARF-1,” for “C.SNARF-5,”, “631” for “632”, “780 nm (NaOH, pH 12).” for “770 nm.”
The Stokes shift of each compound was measured and determined to be about 58 nm for the SNARF-1 anion, and about 150 nm for the compound 15d (transposed) phenoxide. Thus, the 3-1 transposition enhanced the Stokes shift by about 92 nm.
Compounds 20b and 15g also were characterized by their fluorescence emission spectra. Fluorescence was measured using 15 μM solutions of each compound in a solution that was 90% aqueous, 10% DMSO. For compound 20b, the longest wavelength emission observed from the cation occurred near 640 nm at pH 7.4. For compound 15g (transposed), the longest wavelength emission observed from the cation occurred near 770 nm at pH 7.4. […]

[3] = Absorbance and fluorescence measured in methanol; assay type: physicochemical; conditions: versus analogue with known regiochemistry (8 vs 22, 15a vs 20a)
Experimental: Absorbance and fluorescence of compounds 22 and 8 also were measured in methanol. […] Thus, placement of the hydroxyl group proximal to the xanthene internal oxygen in compound 8 produced a bathochromic shift of 103 nm in the absorption spectrum. The transposition also imparted a corresponding shift in the excitation spectrum, and a large bathochromic shift of 128 nm in the fluorescence emission. Importantly, compound 8 absorbs and emits in the near-infrared with absorption and emission maxima of 701 nm and 816 nm, respectively.
Absorbance and fluorescence of compounds 20a and 15a also were measured in methanol. […] Thus, placement of the hydroxyl group proximal to the xanthene internal oxygen in compound 15a produced a bathochromic shift of 15 nm in the absorbance spectrum. The transposition also imparted a corresponding shift in the excitation spectrum, and a large bathochromic shift of 32 nm in the fluorescence emission.

[4] = Absorbance and emission in 0.1M NaOH; assay type: physicochemical
From the text: The absorbance and fluorescence spectra of the fluorophore typically are pH dependent. For example, the absorbance maximum for one ester derivative (compound 15d) in 0.1M NaOH is 620 nm and the emission maximum in same solvent is 770 nm. The Stokes shift in this solvent is 150 nm (3142 cm^−1).

[5] = Spectral properties of rhodamine bis-boronic acids and precursors (Table 5); assay type: physicochemical
From the text: Excitation and emission spectra were normalized to their absorbance at the excitation wavelength, and are proportional to quantum yield.

[6] = Saccharide sensing, absorbance and fluorescence response
Experimental: Solvents including MeCN, MeOH, EtOH, DMSO and buffer were initially screened for sugar sensing. […] DMSO mixtures were chosen for further studies.
The final pH 7.4 phosphate buffer concentration was 12.5 mM.

[7] = Saccharide sensing, response to ribose; conditions: DMSO:buffer 1:1, entire concentration range investigated
Experimental: The spectral behavior of both compounds 51 and 53 in the presence of saccharides was further investigated in both 1:1 and 1:9 DMSO-buffer (final pH 7.4 phosphate buffer concentration of 12.5 mM) solutions. Both bis-boronic acids responded to binding of sugars through a red shift in their emission and the expected increase in fluorescence intensity.
FIGS. 37A-37D show the response of bis-boronic acid 51 to fructose, ribose and glucose under the two solvent conditions mentioned above. […] At high sugar concentrations, the response for all three sugars converged. […] An approximately 1.5-fold increase in both absorbance and fluorescence was observed over the entire concentration range investigated. Binding of all three sugars occurred at lower concentrations as compared to the 1:9 DMSO:buffer system, with the response of both ribose and fructose having already plateaued at 10 mM, the lowest concentration investigated. Unlike the 1:9 solvent system, there were significant spectral differences in the responses toward different sugars (FIG. 37C compared to FIG. 37A).

[8] = Saccharide sensing, response to fructose; conditions: DMSO:buffer 1:9; estimated from 140-fold fluorescence and 3-fold absorbance increase
[9] = DMSO:buffer 1:1, pH 7.4 phosphate buffer 12.5 mM
[10] = DMSO:buffer 1:9, pH 7.4 phosphate buffer 12.5 mM
[11] = DMSO:buffer 1:9, high sugar concentrations, all sugars

SMILES: Cc1ccc(C)c(-c2c3ccc4cccc(O)c4c3oc3c2ccc2cccc(=O)c23)c1 [Compound 4a]
- absorption in the blood solution (Emission in blood; blood solution): clearly visible and remained stable over extended periods of time

SMILES: O=C1OC2(c3ccccc31)c1ccc3cccc(O)c3c1Oc1c2ccc2cccc(O)c12 [Compound 7]
- form in solution ([1]; 1:9 DMSO:buffer below physiological pH of 7.4): colorless lactone
- longest wavelength emission ([2]; NaOH (pH 12), anion/dianion/phenoxide, 15 μM, 90% aqueous, 10% DMSO): either too weak to be detected or, more likely, beyond the working range of the instrument

SMILES: COC(=O)c1ccccc1-c1c2ccc3cccc(O)c3c2oc2c1ccc1cccc(=O)c12 [Compound 8]
- fluorescence emission ([2]; 15 μM, 90% aqueous, 10% DMSO, instrument range to 850 nm): not observed
- bathochromic shift in the absorption spectrum [3]: 103 nm
- bathochromic shift in the fluorescence emission [3]: 128 nm

SMILES: COC(=O)c1ccccc1-c1c2ccc(=O)cc-2oc2c1ccc1cccc(N)c12 [Compound 15e]
- pH titration of absorption ([1]; low pH): increased long wavelength absorption and decreased short wavelength absorption at low pH

SMILES: N=c1ccc2c(ccc3c(-c4ccccc4C(=O)O)c4ccc(N)cc4oc32)c1 [Compound 50]
- quantum yield ([5]; DMSO buffer 1:9): 19%
- red shift of maximum absorption versus rhodamine 110 ([5]; DMSO buffer 1:9): 40 nm
- red shift of maximum emission versus rhodamine 110 ([5]; DMSO buffer 1:9): ~100 nm
- Abs [5, 9]: 542 nm
- Brightness [5, 9]: 6298
- Em [5, 9]: 630 nm
- Ex [5, 9]: 542 nm
- Q.Y. [5, 9]: 0.30
- ε [5, 9]: 21064 M⁻¹ cm⁻¹
- Abs [5, 10]: 535 nm
- Brightness [5, 10]: 8083
- Em [5, 10]: 628 nm
- Ex [5, 10]: 534 nm
- Q.Y. [5, 10]: 0.19
- ε [5, 10]: 42701 M⁻¹ cm⁻¹

SMILES: O=C(O)c1ccccc1-c1c2ccc(NCc3ccccc3B(O)O)cc2oc2c1ccc1cc(=NCc3ccccc3B(O)O)ccc12 [Compound 51]
- Abs [5, 9]: 579 nm
- Brightness [5, 9]: 8037
- Em [5, 9]: 643 nm
- Ex [5, 9]: 580 nm
- Q.Y. [5, 9]: 0.35
- ε [5, 9]: 23096 M⁻¹ cm⁻¹
- Abs [5, 10]: 560 nm
- Brightness [5, 10]: 3032^e
- Em [5, 10]: 638 nm
- Ex [5, 10]: 568 nm
- Q.Y. [5, 10]: 0.15
- ε [5, 10]: 20326 M⁻¹ cm⁻¹
- increase in absorbance [6, 11]: ~2 fold
- increase in fluorescence [6, 11]: greater than 5 fold
- increase in absorbance [7]: approximately 1.5 fold
- increase in fluorescence [7]: approximately 1.5 fold

SMILES: O=C(O)c1ccccc1-c1c2ccc3cc(NCc4ccccc4B(O)O)ccc3c2oc2c1ccc1cc(=NCc3ccccc3B(O)O)ccc12 [Compound 53]
- increase in emission ([6]; DMSO:buffer 1:1, all three sugars, emission at 720 nm, excitation at 640 nm): ~5 fold
- quantum yield after binding [8]: 0.186

Next, values leading:

- red-shift of absorbance maximum [1]: 15 nm
- bathochromic shift in the absorption spectrum [3]: 15 nm
- bathochromic shift in the fluorescence emission [3]: 32 nm
SMILES: COC(=O)c1ccccc1-c1c2ccc(=O)cc-2oc2c1ccc1cccc(O)c12 [Compound 15a]

- absorbance maximum [4]: 620 nm
- emission maximum [4]: 770 nm
- time emission remained stable (Emission in blood; 5% whole blood): at least 1 hour
SMILES: COC(=O)c1ccccc1-c1c2ccc(=[N+](C)C)cc-2oc2c1ccc1cccc(O)c12 [Compound 15d]

- red-shift of absorbance maximum [1]: 50 nm
- absorbance maximum ([1]; anion, DMSO:aqueous base 1:9): 599 nm
- bathochromic shift in emission wavelength ([2]; anion 15h compared to anion 20c): 130 nm
- Stokes shift ([2]; anion/phenoxide in NaOH (pH 12)): about 165 nm
- fluorescence emission ([2]; anion, DMSO:aqueous base 1:9): 760 nm
- Stokes shift ([2]; anionic form, NIR emission at 760 nm): 160 nm
SMILES: COC(=O)c1ccccc1-c1c2ccc(=O)cc-2oc2c1ccc1cccc(O)c12 [Compound 15h]
